Where “and” joins values, the source holds several entries; their conditions need not be identical. Equal entries are not always repeated.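 All cell lines were grown in 96-well plates and treated with compound for 48 hours. At the GI50, growth is halved. At the TGI there is no net growth.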
Legend:
Assay in all cases: NCI tumour cell line growth inhibition, 48 h
KM12 colon = system: KM12 colon
NCI-H23 lung = system: NCI-H23 lung
786-0 renal = system: 786-0 renal
T-47D breast = system: T-47D breast
SF-268 CNS = system: SF-268 CNS
SK-MEL-2 melanoma = system: SK-MEL-2 melanoma
OVCAR-8 ovarian = system: OVCAR-8 ovarian
NCI-H226 lung = system: NCI-H226 lung
CAKI-1 renal = system: CAKI-1 renal
SN12C renal = system: SN12C renal

Compound: CC1(C)[C@@H](O[C@@H]2OC[C@@H](O[C@@H]3O[C@H](CO)[C@@H](O)[C@H](O)[C@H]3O[C@@H]3OC[C@@H](O)[C@H](O)[C@H]3O)[C@H](O)[C@H]2O[C@@H]2O[C@H](CO)[C@@H](O)[C@H](O)[C@H]2O)CC[C@]2(C)[C@H]3CC[C@]45OC[C@@]6(CC[C@](C)(C=O)C[C@H]64)[C@H](O)C[C@@]5(C)[C@]3(C)CC[C@@H]12
- GI50 (KM12 colon): 1.21 µM
- TGI (KM12 colon): 3.17 µM
- GI50 (NCI-H23 lung): 0.984 µM
- TGI (NCI-H23 lung): 2.12 µM
- GI50 (786-0 renal): 2.84 µM
- TGI (786-0 renal): 5.77 µM
- GI50 (T-47D breast): 1.52 µM
- TGI (T-47D breast): 5 µM
- GI50 (SF-268 CNS): 0.963 µM
- TGI (SF-268 CNS): 1.99 µM
- GI50 (SK-MEL-2 melanoma): 0.886 µM
- TGI (SK-MEL-2 melanoma): 1.74 µM
- GI50 (OVCAR-8 ovarian): 1.07 µM
- TGI (OVCAR-8 ovarian): 2.57 µM
- GI50 (NCI-H226 lung): 0.985 µM
- TGI (NCI-H226 lung): 2.11 µM
- GI50 (CAKI-1 renal): 0.763 µM
- TGI (CAKI-1 renal): 1.45 µM
- GI50 (SN12C renal): 0.847 µM
- TGI (SN12C renal): 1.79 µM

Compound: CCOC(=O)C(=Cc1ccc(Oc2ccccc2)cc1)C(=O)OCC
- TGI (KM12 colon): 19 µM
- TGI (NCI-H23 lung): 6.93 µM
- TGI (786-0 renal): 3.47 µM
- TGI (T-47D breast): 24.6 µM
- TGI (SF-268 CNS): 9.19 µM
- TGI (SK-MEL-2 melanoma): 4.4 µM
- TGI (OVCAR-8 ovarian): 10.7 µM
- TGI (NCI-H226 lung): 12.1 µM
- TGI (CAKI-1 renal): 28.4 µM
- TGI (SN12C renal): 5.65 µM

Compound: O=C(NP(=O)(N1CC1)N1CC1)c1cc(I)ccc1I
- TGI (KM12 colon): > 100 µM
- TGI (NCI-H23 lung): 56.1 µM
- TGI (786-0 renal): > 100 µM
- TGI (T-47D breast): > 100 µM
- TGI (SF-268 CNS): > 100 µM
- TGI (SK-MEL-2 melanoma): > 100 µM
- TGI (OVCAR-8 ovarian): > 94.4 µM
- TGI (NCI-H226 lung): > 100 µM
- TGI (CAKI-1 renal): > 100 µM
- TGI (SN12C renal): > 100 µM

Compound: CCCCS(=O)(=O)CCC(N)C(=O)O (stereo unspecified)
- TGI (KM12 colon): > 100 µM
- TGI (NCI-H23 lung): > 100 µM
- TGI (786-0 renal): > 100 µM
- TGI (T-47D breast): > 100 µM
- TGI (SF-268 CNS): > 100 µM
- TGI (SK-MEL-2 melanoma): > 100 µM
- TGI (OVCAR-8 ovarian): > 100 µM
- TGI (NCI-H226 lung): > 100 µM
- TGI (CAKI-1 renal): > 100 µM
- TGI (SN12C renal): > 100 µM

Compound: Cc1cc(Cl)ccc1NC(=O)c1cc2ccccc2cc1O
- GI50 (KM12 colon): 1.91 µM
- TGI (KM12 colon): > 44 µM
- GI50 (NCI-H23 lung): 0.295 µM
- TGI (NCI-H23 lung): > 100 µM
- GI50 (786-0 renal): 1.19 µM
- TGI (786-0 renal): > 100 µM
- GI50 (T-47D breast): 0.852 µM
- TGI (T-47D breast): > 26.8 µM
- GI50 (SF-268 CNS): 1.91 µM
- TGI (SF-268 CNS): > 100 µM
- GI50 (SK-MEL-2 melanoma): 0.432 µM
- GI50 (OVCAR-8 ovarian): 0.882 µM
- TGI (OVCAR-8 ovarian): > 100 µM
- GI50 (NCI-H226 lung): 0.93 µM
- TGI (NCI-H226 lung): > 100 µM
- GI50 (CAKI-1 renal): 0.381 µM
- TGI (CAKI-1 renal): > 100 µM
- GI50 (SN12C renal): 0.377 µM
- TGI (SN12C renal): > 100 µM

Compound: CC(=O)O[C@]1(C(C)=O)CC[C@H]2[C@@H]3C=C(C)C4=CC(=O)CC[C@]4(C)[C@H]3CC[C@@]21C
- GI50 (KM12 colon): > 100 µM
- TGI (KM12 colon): > 100 µM
- GI50 (NCI-H23 lung): > 100 µM
- TGI (NCI-H23 lung): > 100 µM
- GI50 (786-0 renal): > 80.7 µM
- TGI (786-0 renal): > 100 µM
- GI50 (T-47D breast): > 64.7 µM
- TGI (T-47D breast): > 100 µM
- GI50 (SF-268 CNS): > 92.8 µM
- TGI (SF-268 CNS): > 100 µM
- GI50 (SK-MEL-2 melanoma): > 100 µM
- TGI (SK-MEL-2 melanoma): > 100 µM
- GI50 (OVCAR-8 ovarian): > 75.4 µM
- TGI (OVCAR-8 ovarian): > 100 µM
- GI50 (NCI-H226 lung): > 83.7 µM
- TGI (NCI-H226 lung): > 100 µM
- GI50 (CAKI-1 renal): > 100 µM
- TGI (CAKI-1 renal): > 100 µM
- GI50 (SN12C renal): > 100 µM
- TGI (SN12C renal): > 100 µM

Compound: COc1ccc2c(c1)n([O-])c1ccccc1[n+]2=O
- TGI (KM12 colon): > 100 µM and 46.2 µM
- TGI (NCI-H23 lung): > 100 µM and 91.4 µM
- GI50 (786-0 renal): 43 µM and 21.4 µM
- TGI (786-0 renal): > 100 µM
- TGI (T-47D breast): > 100 µM and 22.6 µM
- GI50 (SF-268 CNS): 31.5 µM and 15.2 µM
- TGI (SF-268 CNS): > 100 µM and 53.7 µM
- TGI (SK-MEL-2 melanoma): 74.7 µM and 54.5 µM
- TGI (OVCAR-8 ovarian): > 100 µM and 55.7 µM
- TGI (NCI-H226 lung): 91.4 µM and 91.6 µM
- GI50 (CAKI-1 renal): 25.3 µM and 8 µM
- TGI (CAKI-1 renal): > 100 µM and 27 µM
- TGI (SN12C renal): > 100 µM

Compound: COc1cc(C2=C(C#Cc3ccccc3)COC2=O)cc(OC)c1OC
- GI50 (KM12 colon): 1.87 µM
- TGI (KM12 colon): 10.5 µM
- GI50 (NCI-H23 lung): 5.51 µM
- TGI (NCI-H23 lung): 12.8 µM
- GI50 (786-0 renal): < 0.0224 µM
- GI50 (T-47D breast): 13.3 µM
- TGI (T-47D breast): > 100 µM
- GI50 (SF-268 CNS): 4.59 µM
- TGI (SF-268 CNS): > 100 µM
- GI50 (SK-MEL-2 melanoma): 5.35 µM
- TGI (SK-MEL-2 melanoma): > 90.9 µM
- GI50 (OVCAR-8 ovarian): 5.37 µM
- TGI (OVCAR-8 ovarian): > 45.4 µM
- GI50 (NCI-H226 lung): 1.73 µM
- TGI (NCI-H226 lung): 4.6 µM
- GI50 (CAKI-1 renal): 20.3 µM
- TGI (CAKI-1 renal): > 100 µM
- GI50 (SN12C renal): 0.261 µM
- TGI (SN12C renal): 1.38 µM

Compound: CC1OC(OC2C(O[C@H]3CC[C@@]4(C)C(=CC[C@H]5[C@@H]6C[C@@H]7O[C@]8(CC[C@H](C)CN8)[C@@H](C)[C@@H]7[C@@]6(C)CC[C@@H]54)C3)OC(CO)C(O)C2OC2OC(CO)C(O)C(O)C2O)C(O)C(O)C1O (stereo partly specified)
- TGI (KM12 colon): 34.9 µM
- TGI (NCI-H23 lung): 32.5 µM
- TGI (786-0 renal): 51 µM
- TGI (T-47D breast): 39 µM
- TGI (SF-268 CNS): 33.3 µM
- TGI (SK-MEL-2 melanoma): 32.4 µM
- TGI (OVCAR-8 ovarian): 31.1 µM
- TGI (NCI-H226 lung): 38.2 µM
- TGI (CAKI-1 renal): 34 µM
- TGI (SN12C renal): 38.6 µM

Compound: CN1c2ccccc2C(C)(C)C12C=Cc1cc(O)ccc1O2 (stereo unspecified)
- GI50 (KM12 colon): 2.31 µM
- TGI (KM12 colon): 6.2 µM
- GI50 (NCI-H23 lung): 2.97 µM
- TGI (NCI-H23 lung): 13.8 µM
- GI50 (786-0 renal): 2.77 µM
- TGI (786-0 renal): 8.96 µM
- GI50 (T-47D breast): 4 µM
- TGI (T-47D breast): 16.9 µM
- GI50 (SF-268 CNS): 2.76 µM
- TGI (SF-268 CNS): 10.5 µM
- GI50 (SK-MEL-2 melanoma): 3.05 µM
- TGI (SK-MEL-2 melanoma): 11.5 µM
- GI50 (OVCAR-8 ovarian): 3.16 µM
- TGI (OVCAR-8 ovarian): 12.9 µM
- GI50 (NCI-H226 lung): 13.3 µM
- TGI (NCI-H226 lung): 28.8 µM
- GI50 (CAKI-1 renal): 3.37 µM
- TGI (CAKI-1 renal): 12.4 µM
- GI50 (SN12C renal): 3.19 µM
- TGI (SN12C renal): 17.2 µM

Compound: COc1cc(/C=C/C(=O)c2ccc(NC(=O)CN3CCN(c4cc5c(cc4F)c(=O)c(C(=O)O)cn5C4CC4)CC3)cc2)cc(OC)c1OC
- GI50 (KM12 colon): 0.451 µM
- TGI (KM12 colon): 2.31 µM
- GI50 (NCI-H23 lung): 0.971 µM
- TGI (NCI-H23 lung): 4.89 µM
- GI50 (786-0 renal): 0.947 µM
- TGI (786-0 renal): 3.19 µM
- GI50 (T-47D breast): 1.67 µM
- TGI (T-47D breast): > 57 µM
- GI50 (SF-268 CNS): 1.09 µM
- TGI (SF-268 CNS): 20.4 µM
- GI50 (SK-MEL-2 melanoma): 2.21 µM
- TGI (SK-MEL-2 melanoma): 5.78 µM
- GI50 (OVCAR-8 ovarian): 0.401 µM
- TGI (OVCAR-8 ovarian): 26.9 µM
- GI50 (NCI-H226 lung): 1.52 µM
- TGI (NCI-H226 lung): > 51 µM
- GI50 (CAKI-1 renal): 1.47 µM
- TGI (CAKI-1 renal): > 32.5 µM
- GI50 (SN12C renal): 0.632 µM
- TGI (SN12C renal): 9.01 µM

Compound: CSc1ccc(NC(=S)NN(C)C)cc1
- TGI (KM12 colon): > 10 µM
- TGI (NCI-H23 lung): > 10 µM
- TGI (786-0 renal): > 10 µM
- TGI (T-47D breast): > 10 µM
- TGI (SF-268 CNS): > 10 µM
- TGI (SK-MEL-2 melanoma): > 10 µM
- TGI (OVCAR-8 ovarian): > 10 µM
- TGI (NCI-H226 lung): > 10 µM
- TGI (CAKI-1 renal): > 10 µM
- TGI (SN12C renal): > 10 µM

Compound: Cc1occc1C(=S)Nc1ccc(Cl)c(C(=O)OC(C)C2CC2)c1 (stereo unspecified)
- TGI (KM12 colon): 39.9 µM
- TGI (NCI-H23 lung): 40.1 µM
- TGI (786-0 renal): 52.5 µM
- TGI (T-47D breast): > 100 µM
- TGI (SF-268 CNS): 59.3 µM
- TGI (SK-MEL-2 melanoma): 38.4 µM
- TGI (OVCAR-8 ovarian): 43.2 µM
- TGI (NCI-H226 lung): 33.6 µM
- TGI (CAKI-1 renal): 48.8 µM
- TGI (SN12C renal): 41.6 µM
